Data as given in US12180252B2, “Peptide derived from PEP27 peptide and uses thereof” (priority 2021, dated 2024).
Values after ≈ are worked out from the molar mass of the structure shown. Values joined by “and” are separate entries in the source; they are usually repeats but may differ in a detail not shown here. Equal values may be shown once. Where a SMILES comes first, the peptide text is derived from it.

Legend:
[1] = system: 11 types of strains (Staphylococcus aureus, Pseudomonas erujinosa); assay: MIC, summary over the strains of Table 7; type: cell-based
Method: In order to compare the antimicrobial activity of PEP27-2, which is the peptide having the most excellent antimicrobial activity among the peptides prepared by the method of above 1, with existing antibiotics, MIC concentrations of specific antibiotics were investigated with regard to the same gram-positive bacteria (Staphylococcus aureus) and the same gram-negative bacteria (Pseudomonas erujinosa) stains. Specifically, subject strains were prepared by the method of above 2, and were treated with the antibiotics, that is, meropenem, ceftazidime, ceftriaxone or vancomycin, respectively, followed by determining MICs of the antibiotics.

E. coli ATCC25922 = type: cell-based, Escherichia coli; settings: ATCC25922, 18 h
E. coli CCARM1229 = type: cell-based, Escherichia coli; settings: E. coli CCARM1229, antibiotics-tolerant; 37° C., 18 hours
E. coli ATCC 25922 = assay: Time-kill kinetics; type: cell-based, Escherichia coli; settings: at MIC, after 20 min of treatment
Method: (§1) Time-killing kinetics were analyzed for E. coli ATCC 25922 and S. aureus ATCC 25923 in the presence of PEP27-2 at their respective MICs. The bacterial cells were cultured overnight until they reached the exponential growth phase; they were then incubated at 37° C. for an additional 10 min from 0 min to 1 h. The total bacterial population was then stained with QUANTOM total cell staining dye, after which the stained cells were mixed with QUANTOM cell loading buffer and loaded into QUANTOM M50 Slides. The slides were centrifuged using the QUANTOM centrifuge to evenly distribute them throughout the counting chamber and ensure accurate cell counts. Intracellular fluorescence was detected using the QUANTOM Tx microbial cell counter, which captures and counts cells automatically (Logos Biosystems, Gyeonggi-do, South Korea).

S. aureus ATCC 25923 = assay: Time-kill kinetics; type: cell-based, Staphylococcus aureus; settings: at MIC, after 20 min of treatment
Method: as §1

S. aureus MW2 = assay: microbe, parasite or virus in culture; settings: S. aureus MW2, antibiotics-tolerant; 37° C., 18 hours
Outline: (§2)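 Peptide growth inhibition measured by twofold dilution against mid-log bacteria (2×10^4 cells/100 μl), 37° C, 18 hours; endpoint was absence of cell division. Meropenem, ceftazidime, ceftriaxone and vancomycin were run in parallel.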

S. aureus ATCC29213 = assay: microbe, parasite or virus in culture; settings: ATCC29213, 18 h
Outline: as §2

S. aureus USA300 = assay: microbe, parasite or virus in culture; settings: S. aureus USA300, antibiotics-tolerant; 37° C., 18 hours
Outline: as §2

S. aureus ATCC25923 = assay: microbe, parasite or virus in culture; settings: ATCC25923, 18 h
Outline: as §2

P. aeruginosa ATCC27853 = assay: microbe, parasite or virus in culture; settings: ATCC27853, 18 h
Outline: as §2

E. coli = assay: Flow cytometry, propidium iodide staining; type: cell-based, Escherichia coli; settings: E. coli, flow cytometry
Method: In order to confirm whether the peptide prepared by the method of above 1 acts on the bacterial membrane, PEP27-2 peptide having better antimicrobial activity than the parental peptide was analyzed through flow cytometry.
Thereafter, the supernatant was removed using a centrifuge (10,000 rpm) and stained with propidium iodide (PI) at a concentration of 10 μg/ml at 4° C. for 30 minutes. Then, the unbound propidium iodide (PI) was removed using the centrifuge, and 1 ml of physiological saline (PBS) was added to remove agglomeration of the cells. Thereafter, effects of the peptide on the bacterial membrane were determined using a Bechman flow cytometer.

[2] = Calcein release from LUVs; settings: P/L ratio of 0.05
Method: To examine the mechanism of action of PEP27 and PEP27-2, we evaluated the changes in bacterial cell membrane permeability by monitoring the release of calcein, a fluorescent marker, from calcein entrapped LUVs with different lipid bilayer compositions.
Peptide-induced membrane permeabilization was quantified by monitoring calcein release from LUVs (n=3 per condition). Different calcein-entrapped LUVs [PE/PG (7/3) or PC/CH/SM (1/1/1)] were prepared as described above, except that the dry lipid films were resuspended in 1 mL of PBS (pH 7.2) containing 70 mM calcein. Gel filtration chromatography on a Sephadex G-50 column was performed to separate free calcein from that entrapped in LUVs. Thereafter, the LUVs with entrapped calcein were mixed with peptides at various ratios, and the fluorescence of the released calcein was measured with a SpectraMax M3 Multi-Mode Microplate Reader (Molecular Devices, Sunnyvale, CA, USA) at excitation and emission wavelengths of 480 and 520 nm, respectively.

[3] = system: E. coli and Staphylococcus aureus cells; assay: Scanning electron microscope analysis of bacterial membrane; type: cell-based, Escherichia coli; settings: at MIC, 37° C., 1 hour
Method: In order to confirm whether the synthetic peptides of the present invention prepared by the method of above 1 would damage the bacterial cell membrane, it was investigated through a scanning electron microscope.
As a control, a strain not treated with peptide was used. After incubation, the cells were recovered, treated with 2.5% glutaraldehyde at 4° C. for 18 hours, and washed twice with PBS buffer solution. The fixed cells were dehydrated for 10 minutes using 100% ethanol and diluted ethanol (50%, 70%, 90% and 100%) in sequential order, and then the samples were dried and coated with platinum, followed by observation through a low vacuum scanning electron microscope.

SMILES | MIC range over the strains of Table 7 [1] | Minimal inhibitory concentration (E. coli ATCC25922) | Minimal inhibitory concentration (E. coli CCARM1229) | decrease in E. coli cell viability (E. coli ATCC 25922) | decrease in S. aureus cell viability (S. aureus ATCC 25923) | Minimal inhibitory concentration (S. aureus MW2) | Minimal inhibitory concentration (S. aureus ATCC29213) | Minimal inhibitory concentration (S. aureus USA300) | Minimal inhibitory concentration (S. aureus ATCC25923) | Minimal inhibitory concentration (P. aeruginosa ATCC27853) | bacterial membrane destruction (E. coli) | maximum calcein leakage [2] | bacterial cell membrane damage by SEM [3]
CSCC[C@H](N)C(=O)N[C@@H](Cc1c[nH]c2ccccc12)C(=O)N[C@@H](CCCCN)C(=O)N[C@@H](Cc1c[nH]c2ccccc12)C(=O)N[C@@H](Cc1ccccc1)C(=O)N[C@@H](Cc1c[nH]cn1)C(=O)N[C@@H](CC(N)=O)C(=O)N[C@H](C(=O)N[C@@H](CC(C)C)C(=O)N[C@@H](CO)C(=O)N[C@@H](Cc1c[nH]c2ccccc12)C(=O)NCC(=O)N[C@@H](Cc1c[nH]c2ccccc12)C(=O)N[C@@H](CC(C)C)C(=O)N[C@@H](CC(C)C)C(=O)N[C@@H](C)C(=O)N[C@@H](CC(=O)O)C(=O)N[C@@H](CCCCN)C(=O)N[C@@H](CCCNC(=N)N)C(=O)N1CCC[C@H]1C(=O)N[C@@H](C)C(=O)N[C@@H](CCCNC(=N)N)C(=O)N[C@@H](CC(=O)O)C(=O)N[C@@H](Cc1ccc(O)cc1)C(=O)N[C@@H](CC(N)=O)C(=O)N[C@@H](CCCNC(=N)N)C(=O)N[C@@H](CCCCN)C(N)=O)C(C)C [PEP27-2] (H-MWKWFHNVLSWGWLLADKRPARDYNRK-NH2) | 2 to 4 µM | 4 µM (≈ 13.9 µg/mL) | 4 µM (≈ 13.9 µg/mL) | 98.63% | 97.48% | 3 µM and 4 µM | 2 µM (≈ 6.95 µg/mL) | 2 µM (≈ 6.95 µg/mL) | 2 µM (≈ 6.95 µg/mL) | 4 µM (≈ 13.9 µg/mL) | – | – | –
CC[C@H](C)[C@H](NC(=O)CN)C(=O)NCC(=O)N[C@@H](C)C(=O)N[C@H](C(=O)N[C@@H](CC(C)C)C(=O)N[C@@H](CCCCN)C(=O)N[C@H](C(=O)N[C@@H](CC(C)C)C(=O)N[C@H](C(=O)N[C@H](C(=O)NCC(=O)N[C@@H](CC(C)C)C(=O)N1CCC[C@H]1C(=O)N[C@@H](C)C(=O)N[C@@H](CC(C)C)C(=O)N[C@H](C(=O)N[C@@H](CO)C(=O)N[C@@H](Cc1c[nH]c2ccccc12)C(=O)N[C@H](C(=O)N[C@@H](CCCCN)C(=O)N[C@@H](CCCNC(=N)N)C(=O)N[C@@H](CCCCN)C(=O)N[C@@H](CCCNC(=N)N)C(=O)N[C@@H](CCC(N)=O)C(=O)N[C@@H](CCC(N)=O)C(N)=O)[C@@H](C)CC)[C@@H](C)CC)[C@@H](C)O)[C@@H](C)O)C(C)C)C(C)C [Melittin, reference compound] | – | – | – | – | – | – | – | – | – | – | found to have cell membrane destruction ability | 100% | significant membrane damage
